Results taken from patent US7427625B2, “Substituted thiatriazaacenaphthylene-6-carbonitrile kinase inhibitors” (Janssen Pharmaceutica, N.V., priority 2006, dated 2008).

Columns and labels:
[1] = target: T1, EGFR (Homo sapiens, UniProt P00533); assay: EGFR Kinase Assay; format: biochemical; settings: for inhibition at 2 µM: test concentration of 2 μM, read-out: EGFR percent inhibition
T1 construct: The intracellular portion of EGFR started at nucleotide 2189 (corresponding to amino acid 667) and ended at the termination codon; made in house; host or cells: Sf9 insect cells (baculovirus)
Text: The EGFR kinase used was a fusion of Glutathione-S-Transferase (GST) and a PCR amplified intracellular portion of EGFR (NM_005228). The intracellular portion of EGFR started at nucleotide 2189 (corresponding to amino acid 667) and ended at the termination codon. The portion was PCR amplified with primers that added the lambda attB sequences to each end, recombined into an entry vector, then into a GST destination vector (as described in Gateway Technologies Manual by Invitrogen Corporation, Carlsbad, Calif.).
The destination vector was recombined in the DH10BAC strain of bacteria to produce a bacmid. The bacmid was transfected into Sf 9 cells and the supernatant containing the baculovirus was collected. The GSTEGFR protein was purified using large cultures of Sf 9 cells infected with stock virus. After an appropriate period of time, the cells were collected and lysed. The GSTEGFR was then purified from the lysate on Glutathione-Sepharose columns (as described by Amersham Biosciences, Buckinghamshire, United Kingdom).
The EGFR substrate was prepared by biotinylating polyGluTyr (128 mg) (Sigma, St. Louis, Mo.) in a 1×PBS buffer incubated together with a 12-fold molar excess of Sulfo-NHS-LC-Biotin on ice for at least 2 hrs. The free biotin was separated from the biotinylated polyGluTyr on a gel filtration column.
A mixture of a 10× kinase buffer (500 mM Tris at pH 8.0, 100 mM Magnesium Chloride and 1 mM Sodium Vanadate), DTT (1 mM final from 500 mM stock), ATP (5 μM final from 10 mM stock), biotinylated polyGluTyr (10 μg/μL stock), γ-^33P ATP (10 μCi/μL stock) and water was added to each well (90 μL/well) of a Streptavidin Flashplate (Perkin Elmer, Wellesley, Mass.).
Test compound in 100% DMSO (2 μL) was added to the appropriate wells. Diluted GSTEGFR (1:300 dilution in 50 mM Tris at pH 8.0 and 0.1% bovine serum albumin) (10 μL) was added to the wells to initiate the reactions.
The plates were incubated at 30° C. for 1 hr with shaking. The reacted contents were removed and the plates were sequentially washed three times with a 1×PBS stop buffer (300 μL without Magnesium and Calcium) and 100 mM EDTA. After the final wash, the same stop buffer (200 μL) was added to the wells. The plates were then sealed and read on the TopCount scintillation counter.
Test compounds were assayed in triplicate at 16 concentrations at half-log dilutions starting at 200 uM. A maximum and minimum signal for the assay was determined on each plate. The percent inhibition of a test compound was calculated according to the formula
For a series of test concentrations, the IC50 was derived by graphing percent inhibition against the log of the concentrations tested for a given compound. For those compounds without an IC50, the percent inhibition results are shown at a test concentration of 2 μM.

[2] = target: T2, HER-2 (Homo sapiens, UniProt P04626); assay: HER-2 Kinase Assay; format: biochemical; settings: for inhibition at 1 µM: test concentration of 1 μM, read-out: HER-2 percent inhibition
T2 construct: the nucleotides encoding amino acids 679 to 1255 of HER-2; purchased Proqinase (Freiburg, Germany)
Method: HER-2 kinase was purified at Proqinase (Freiburg, Germany) from a construct that consisted of a fusion of GST (Glutathione-S-Transferase), HIS6-Thrombin and the nucleotides encoding amino acids 679 to 1255 of HER-2.
A mixture of a 10× kinase reaction buffer (600 mM Hepes at pH 7.5, 30 mM Magnesium Chloride, 0.03 mM Sodium Vanadate and 500 μg/mL PEG 20,000), DTT (1.2 mM final from a 10 mM stock), ATP (1 μM from a 10 mM stock), biotinylated polyGluTyr (1.5 ng/μL final from stock of 1 μg/μL prepared by Upstate Biotechnologies, Lake Placid, N.Y.), Manganese Chloride (3 mM final from a 1 M stock), γ-^33P-ATP (10 μCi/μL stock) and water (70 μL/well) was added to each well of a Streptavidin Flashplate (Cat. #SMP103, NEN, Boston, Mass.).
Test compound stock (1 μL) was added to the appropriate wells. Diluted GSTHER2 kinase (6.7 ng/μL diluted into 50 mM Tris-HCl at pH 8.0 and 0.1% bovine serum albumin) (30 μL) was added (total volume of 200 ng/well) to initiate the reactions.
The reaction plates were incubated at 30° C. for 1 hr. The reaction was terminated by aspiring the reaction mixture from the plate wells and washing the wells three times with a 1×PBS stop buffer (300 μL) and 100 mM EDTA. After the final wash, the same stop buffer (200 μL) was again added to the wells. The plates were then sealed and read on the TopCount scintillation counter.
(§1) The IC50 was derived according to the procedure described in Example 2. For those compounds without an IC50, the percent inhibition results are shown at a test concentration of 1 μM.

[3] = target: T3, Aurora-A (Mus musculus, UniProt P97477); assay: Aurora-A Screening Assay; format: biochemical, murine; settings: for inhibition at 1 µM: test concentration of 1 μM, read-out: Aurora-A percent inhibition
T3 construct: followed by the full length protein encoding the murine Aurora-A; polyhistidine (N); made in house; host or cells: sf9 insect cells
T3 sequence (P97477 1-395): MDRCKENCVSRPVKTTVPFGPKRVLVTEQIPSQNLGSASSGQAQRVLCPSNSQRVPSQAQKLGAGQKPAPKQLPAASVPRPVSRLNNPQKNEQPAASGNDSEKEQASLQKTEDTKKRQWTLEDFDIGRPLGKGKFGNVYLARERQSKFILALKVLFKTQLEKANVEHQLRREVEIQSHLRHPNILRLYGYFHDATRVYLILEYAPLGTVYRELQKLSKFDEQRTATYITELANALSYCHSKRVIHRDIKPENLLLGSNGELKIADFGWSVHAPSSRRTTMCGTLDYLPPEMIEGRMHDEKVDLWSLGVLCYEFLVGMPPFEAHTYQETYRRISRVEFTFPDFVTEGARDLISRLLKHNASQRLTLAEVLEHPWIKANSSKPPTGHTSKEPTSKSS
Method: (§2) A kinase reaction mixture was prepared containing 50 mM Tris-HCl at pH 8, 10 mM, MgCl20.1 mM […], 1 mM DTT, 10 μM ATP, 0.025 μM biotinylated histone-H1 peptide substrate and 0.2 μCuries per well ^33P-γ-ATP (2000-3000 Ci/mmol). 70 μL of the kinase reaction mixture was dispensed into the well of a Streptavidin FlashPlate.
(§3) Test compound stock in 100% DMSO (1 μL) was added to the wells resulting in a final concentration of 1% DMSO in the reaction with a 100 μL final reaction volume. Each enzyme was diluted in 50 mM Tris-HCl pH=8.0, 0.1% BSA and 30 μL was added to each well to initiate the reaction. The reaction was incubated for one hour at 30° C. At the end of the 1 hr incubation, the reaction was terminated by aspirating the mixture from the plate and washing the wells twice with PBS containing 100 mM EDTA. The biotinylated peptide substrate became immobilized on the Flashplate^198 and the incorporation of ^33P-γ-ATP was measured by reading the plate on a scintillation counter. Inhibition of the enzymatic activity was measured by observing a reduced amount of ^33P-γ-ATP incorporated into the immobilized peptide.
Aurora-A is a fusion protein containing a polyhistidine tag at the N terminus followed by the full length protein encoding the murine Aurora-A (Accession number GB BC014711) expressed and purified from sf9 insect cells. The assay used 400 ng of the N-terminal biotinylated peptide biotin-GRTGRRNSI-amide (Aurora-A) per well.
as §1

[4] = target: T4, VEGF-R2 (Rattus norvegicus, UniProt O08775); assay: VEGF-R2 Screening Assay; format: biochemical; settings: for inhibition at 1 µM: test concentration of 1 μM, read-out: VEGF-R2 percent inhibition
T4 construct: polyhistidine (N)
Method: as §2, §3
The VEGF-R2 enzyme is a fusion protein containing a polyhistidine tag at the N terminus followed by amino acids 786 to 1343 of the rat VEGF-R2 kinase domain (Accession number U93306). The assay used 150 ng of the N-terminal biotinylated peptide biotin-KHKKLAEGSAYEEV-amide (VEGF-R2) per well.
as §1

T4 sequence (O08775 786-1343): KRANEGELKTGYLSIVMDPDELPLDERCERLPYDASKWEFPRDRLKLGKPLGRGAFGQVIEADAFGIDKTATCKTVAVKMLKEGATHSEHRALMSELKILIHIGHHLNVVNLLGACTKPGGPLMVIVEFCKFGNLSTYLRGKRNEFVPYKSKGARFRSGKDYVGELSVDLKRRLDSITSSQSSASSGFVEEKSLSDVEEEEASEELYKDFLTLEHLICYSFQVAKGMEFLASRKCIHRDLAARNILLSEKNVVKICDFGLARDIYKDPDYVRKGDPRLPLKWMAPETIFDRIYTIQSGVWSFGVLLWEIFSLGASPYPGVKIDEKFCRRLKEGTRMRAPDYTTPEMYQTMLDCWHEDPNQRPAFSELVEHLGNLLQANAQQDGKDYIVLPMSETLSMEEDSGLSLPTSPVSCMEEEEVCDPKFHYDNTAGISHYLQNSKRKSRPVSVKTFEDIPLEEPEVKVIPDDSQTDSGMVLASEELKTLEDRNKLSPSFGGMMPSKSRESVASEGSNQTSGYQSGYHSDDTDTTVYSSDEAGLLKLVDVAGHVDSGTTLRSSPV
T2 sequence (P04626 679-1255): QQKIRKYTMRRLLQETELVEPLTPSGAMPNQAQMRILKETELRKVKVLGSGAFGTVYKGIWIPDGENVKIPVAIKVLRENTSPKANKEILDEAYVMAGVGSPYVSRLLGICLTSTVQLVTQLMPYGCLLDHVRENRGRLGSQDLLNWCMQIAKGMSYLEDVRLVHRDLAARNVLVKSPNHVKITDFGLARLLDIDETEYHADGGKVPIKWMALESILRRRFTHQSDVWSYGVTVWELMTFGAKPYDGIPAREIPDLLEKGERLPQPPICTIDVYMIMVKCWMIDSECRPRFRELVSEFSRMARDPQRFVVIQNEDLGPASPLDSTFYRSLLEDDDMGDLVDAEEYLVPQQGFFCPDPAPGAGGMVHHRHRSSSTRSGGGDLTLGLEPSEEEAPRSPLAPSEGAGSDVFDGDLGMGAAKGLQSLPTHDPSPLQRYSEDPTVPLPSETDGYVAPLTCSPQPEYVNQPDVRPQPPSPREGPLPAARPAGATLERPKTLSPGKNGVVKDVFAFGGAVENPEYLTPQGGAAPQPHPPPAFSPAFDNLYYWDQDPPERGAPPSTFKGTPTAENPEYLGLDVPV
T1 sequence (P00533 669-1210 limits assumed): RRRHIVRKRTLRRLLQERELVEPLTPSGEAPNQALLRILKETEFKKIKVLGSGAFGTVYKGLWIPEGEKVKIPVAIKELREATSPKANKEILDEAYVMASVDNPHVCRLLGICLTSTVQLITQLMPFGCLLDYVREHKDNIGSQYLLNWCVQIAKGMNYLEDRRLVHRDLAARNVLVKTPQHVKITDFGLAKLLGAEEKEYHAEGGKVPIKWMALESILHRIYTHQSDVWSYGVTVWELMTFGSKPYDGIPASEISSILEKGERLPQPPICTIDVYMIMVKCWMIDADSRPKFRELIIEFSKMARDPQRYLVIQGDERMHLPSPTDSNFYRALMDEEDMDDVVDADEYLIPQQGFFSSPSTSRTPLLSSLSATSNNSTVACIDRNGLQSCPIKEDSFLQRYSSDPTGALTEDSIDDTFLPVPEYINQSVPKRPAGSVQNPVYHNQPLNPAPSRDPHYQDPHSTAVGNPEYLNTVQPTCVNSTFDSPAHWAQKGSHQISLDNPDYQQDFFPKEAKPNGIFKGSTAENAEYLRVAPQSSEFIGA

| Structure (SMILES) | IC50 [1] [µM] | inhibition at 1 µM [2] [%] | inhibition at 1 µM [3] [%] | inhibition at 1 µM [4] [%] | inhibition at 2 µM [1] [%] | IC50 [4] [µM] | IC50 [2] [µM] | IC50 [3] [µM] |
| --- | --- | --- | --- | --- | --- | --- | --- | --- |
| N#Cc1cnc2sc(C(=O)Nc3ccc(CN4CCCC(CO)C4)cc3)c3c2c1N(c1c(Cl)ccc2c1OCO2)C(=O)N3 (stereo not shown) [Cpd 20, 5-(5-chloro-benzo[1,3]dioxol-4-yl)-6-cyano-4-oxo-4,5-dihydro-3H-1-thia-3,5,8-triaza-acenaphthylene-2-carboxylic acid [4-(3-hydroxymethyl-piperidin-1-ylmethyl)-phenyl]-amide] | 0.91 | 41 | 21 | 24 | – | – | – | – |
| N#Cc1cnc2sc(C(=O)N3CCCC(CO)C3)c3c2c1N(c1c(Cl)ccc2c1OCO2)C(=O)N3 (stereo not shown) [Cpd 21, 5-(5-chloro-benzo[1,3]dioxol-4-yl)-2-(3-hydroxymethyl-piperidine-1-carbonyl)-4-oxo-4,5-dihydro-3H-1-thia-3,5,8-triaza-acenaphthylene-6-carbonitrile] | – | 13 | 3 | – | 32 | > 100 | – | – |
| N#Cc1cnc2sc(C(=O)Nc3ccc(CN4CCC(CO)CC4)cc3)c3c2c1N(c1c(Cl)ccc2c1OCO2)C(=O)N3 [Cpd 22, 5-(5-chloro-benzo[1,3]dioxol-4-yl)-6-cyano-4-oxo-4,5-dihydro-3H-1-thia-3,5,8-triaza-acenaphthylene-2-carboxylic acid [4-(4-hydroxymethyl-piperidin-1-ylmethyl)-phenyl]-amide] | 0.567 | 48 | 15 | – | – | > 100 | – | – |
| N#Cc1cnc2sc(C(=O)Nc3ccc(CN4CCC(O)CC4)cc3)c3c2c1N(c1c(Cl)ccc2c1OCO2)C(=O)N3 [Cpd 23, 5-(5-chloro-benzo[1,3]dioxol-4-yl)-6-cyano-4-oxo-4,5-dihydro-3H-1-thia-3,5,8-triaza-acenaphthylene-2-carboxylic acid [4-(4-hydroxy-piperidin-1-ylmethyl)-phenyl]-amide] | 0.598 | 44 | 16 | 28 | – | – | – | – |
| CC1COCC(C)N1Cc1ccc(NC(=O)c2sc3ncc(C#N)c4c3c2NC(=O)N4c2c(Cl)ccc3c2OCO3)cc1 (stereo not shown) [Cpd 24, 5-(5-chloro-benzo[1,3]dioxol-4-yl)-6-cyano-4-oxo-4,5-dihydro-3H-1-thia-3,5,8-triaza-acenaphthylene-2-carboxylic acid [4-(3,5-dimethyl-morpholin-4-ylmethyl)-phenyl]-amide] | – | 12 | 7 | 14 | 24 | – | – | – |
| C[C@@H]1CN(Cc2ccc(NC(=O)c3sc4ncc(C#N)c5c4c3NC(=O)N5c3c(Cl)ccc4c3OCO4)cc2)C[C@H](C)O1 [Cpd 25, 5-(5-chloro-benzo[1,3]dioxol-4-yl)-6-cyano-4-oxo-4,5-dihydro-3H-1-thia-3,5,8-triaza-acenaphthylene-2-carboxylic acid [4-(2,6-cis-dimethyl-morpholin-4-ylmethyl)-phenyl]-amide] | – | 3 | 18 | 0 | 24 | – | – | – |
| N#Cc1cnc2sc(C(=O)Nc3ccc(CN4CCC(F)CC4)cc3)c3c2c1N(c1c(Cl)ccc2c1OCO2)C(=O)N3 [Cpd 26, 5-(5-chloro-benzo[1,3]dioxol-4-yl)-6-cyano-4-oxo-4,5-dihydro-3H-1-thia-3,5,8-triaza-acenaphthylene-2-carboxylic acid [4-(4-fluoro-piperidin-1-ylmethyl)-phenyl]-amide] | 2.02 | – | 23 | 11 | – | – | > 1 | – |
| N#Cc1cnc2sc(C(=O)N3CCCC(F)C3)c3c2c1N(c1c(Cl)ccc2c1OCO2)C(=O)N3 (stereo not shown) [Cpd 43, 5-(5-chloro-benzo[1,3]dioxol-4-yl)-2-(3-fluoro-piperidine-1-carbonyl)-4-oxo-4,5-dihydro-3H-1-thia-3,5,8-triaza-acenaphthylene-6-carbonitrile] | – | – | – | – | – | ~100 | 10.6 | > 10 |
| N#Cc1cnc2sc(C(=O)Nc3ccc(CN4CCCC(F)C4)cc3)c3c2c1N(c1c(Cl)ccc2c1OCO2)C(=O)N3 (stereo not shown) [Cpd 44, 5-(5-chloro-benzo[1,3]dioxol-4-yl)-6-cyano-4-oxo-4,5-dihydro-3H-1-thia-3,5,8-triaza-acenaphthylene-2-carboxylic acid [4-(3-fluoro-piperidin-1-ylmethyl)-phenyl]-amide] | – | – | – | – | – | > 10 | 1.1 | 1.1 |
